Test results as given in paper PMC9482650, “Quantitative fragmentomics allow affinity mapping of interactomes” (Nature Communications, 2022).
Read-outs that look alike come from different tables or passages of the source. Ends that are not written are not given here.

Legend:
[1] = molecular target: SNX27 PDZ (Homo sapiens, UniProt Q96L92); assay: Holdup assay; format: binding
[2] = molecular target: DLG1_1 PDZ (Homo sapiens, UniProt Q12959); assay: Holdup assay; format: binding
[3] = molecular target: SCRIB_1 PDZ (Homo sapiens, UniProt Q14160); assay: Holdup assay; format: binding
[4] = molecular target: DLG1_2 PDZ (Homo sapiens, UniProt Q12959); assay: Holdup assay; format: binding
[5] = molecular target: T1, TX1BP3 PDZ (Homo sapiens, UniProt O14907); assay: Holdup assay; format: binding
T1 sequence (O14907 15-112 limits assumed): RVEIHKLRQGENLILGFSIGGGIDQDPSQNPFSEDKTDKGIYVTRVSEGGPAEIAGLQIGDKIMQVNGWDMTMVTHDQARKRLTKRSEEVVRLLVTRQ

[6] = tested on: HEK293T cells; assay: Label-free MS proteome of stable cell lines expressing HPV16 E6 or E6ΔPBM; format: cell-based, human; settings: protein level
Method: HEK293T and HeLa cells were authenticated and found 100% identity to ATCC cat. CRL-3216 and ATCC cat. CCL-2, respectively. Jurkat and HaCat cell lines were not authenticated (original source: ECACC and Deutsches Krebsforschungszentrum DKFZ, respectively). HeLa cells were grown in DMEM (1 g/L glucose, Gibco) medium completed with 5% FCS and 40 μg/mL gentamicin, diluted every 3rd/4th day 1/10. HaCat cells were grown in DMEM (1 g/L glucose, Gibco) medium completed with 10% FCS and 40 μg/mL gentamicin, diluted every 3rd/4th day 1/4. Jurkat cells were grown in RPMI (Gibco) medium completed with 10% FCS and 40 μg/mL gentamicin, diluted every 3rd/4th day 1/12. All cells were kept at 37 °C and 5% CO2. For proteomics analyses cells were seeded on T-175 flasks. After they reached confluency, adherent cells were washed with PBS once and collected by scraping with ice-cold lysis buffer (Hepes-KOH pH 7.5 50 mM, NaCl 150 mM, Triton X-100 1%, complete EDTA-free protease inhibitor cocktail 1×, EDTA 2 mM, TCEP 5 mM, glycerol 10%). Jurkat cells were collected by 1000 g × centrifugation, washed once with PBS, then collected by 1000 g × 5 min centrifugation again and lysed in ice-cold lysis buffer. Lysates were sonicated 4 × 20 s with 1 s long pulses on ice, then incubated rotating at 4 °C for 30 min. Lysates were centrifuged at 12,000 rpm 4 °C for 20 min and supernatant was kept for further analysis. Concentration determination was carried out by standard Bradford method (Bio-Rad Protein Assay Dye Reagent #5000006) using BSA (MP BIomedicals #160069) as control on a Bio-Rad SmartSpec 3000 spectrophotometer instrument.
(§1) The samples were precipitated with TCA 20% overnight at 4 °C and centrifuged at 14,000 rpm for 10 min at 4 °C. The protein pellets were washed twice with 1 mL cold acetone and air dried. The protein extracts were solubilized in urea 8 M, reduced with 5 mM TCEP for 30 min, and alkylated with 10 mM iodoacetamide for 30 min in the dark. Double digestion was performed at 37 °C with 500 ng endoproteinase Lys-C for 4 h, followed by fourfold dilution and an overnight digestion with 500 ng trypsin. Peptide mixtures were then desalted on C18 spin-column and dried on Speed-Vacuum.
(§2) Samples were analyzed using an Ultimate 3000 nano-RSLC (Thermo Scientific, San Jose California) coupled in line with a LTQ-Orbitrap ELITE mass spectrometer via a nano-electrospray ionization source (Thermo Scientific, San Jose California). Peptide mixtures were injected in 0.1% TFA on a C18 Acclaim PepMap100 trap-column (75 µm ID × 2 cm, 3 µm, 100 Å, Thermo Fisher Scientific) for 3 min at 5 µL/min with 2% ACN, 0.1% FA in H2O and then separated on a C18 Accucore nano-column (75 µm ID × 50 cm, 2.6 µm, 150 Å, Thermo Fisher Scientific) at 220 nl/min and 38 °C with a 90 min linear gradient from 5% to 30% buffer B (A: 0.1% FA in H2O/B: 99% ACN, 0.1% FA in H2O), regeneration at 5% B. The mass spectrometer was operated in positive ionization mode, in data-dependent mode with survey scans from m/z 350–1500 acquired in the Orbitrap at a resolution of 120,000 at m/z 400. The 20 most intense peaks from survey scans were selected for further fragmentation in the Linear Ion Trap with an isolation window of 2.0 Da and were fragmented by CID with normalized collision energy of 35%. (TOP20CID method) Unassigned and single charged states were excluded from fragmentation. The Ion Target Value for the survey scans (in the Orbitrap) and the MS2 mode (in the Linear Ion Trap) were set to 1E6 and 5E3 respectively and the maximum injection time was set to 100 ms for both scan modes. Dynamic exclusion was set to 20 s after one repeat count with mass width at ±10 ppm.
Proteins were identified by database searching using SequestHT (Thermo Fisher Scientific) with Proteome Discoverer 2.4 software (PD2.4, Thermo Fisher Scientific) on human FASTA database downloaded from SwissProt (reviewed, release 2020_11_27, 20304 entries, https://www.uniprot.org/). […]

[7] = molecular target: T2, SCRIB2 PDZ (Homo sapiens, UniProt Q14160); assay: Holdup assay; format: binding
T2 sequence (Q14160 862-950 limits assumed): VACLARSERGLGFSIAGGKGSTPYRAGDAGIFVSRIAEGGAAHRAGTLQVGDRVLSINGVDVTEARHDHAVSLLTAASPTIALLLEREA

[8] = tested on: HaCat cell extract preys; assay: PDZ-AP-MS, biotinylated MBP-PDZ baits; format: binding, human; settings: for Difference log2: enrichment of prey
Method: (§3) For PDZ-AP-MS experiments, PDZ domains were cloned as His6-AviTag-MBP-PDZ constructs. For co-expression with BirA, E. coli BL21(DE3) cells were co-transformed with His6-AviTag-MBP, or His6-AviTag-MBP-PDZ-coding and PET21a-BirA (Addgene #20857) plasmids. Simultaneously to IPTG induction, 50 µM biotin was added to the media. After cell harvesting, the lysis buffer was also supplemented with 50 µM biotin. Otherwise, expression and double affinity purification was identical as previously described in details.
(§4) For PBM-AP-MS experiments, 30 μl streptavidin resin was mixed with biotin or peptide at 50–60 μM concentration in 6–6.5 resin volume for 60 min to achieve resin saturation. For PDZ-AP-MS experiments, 30 μl streptavidin resin was mixed with biotinylated MBP or MBP-PDZ at 40-50 μM concentration in >1000× resin volume for 60 min to achieve resin saturation. After saturation, resins were washed a single time (ten resin volume, holdup buffer), and were depleted with biotin (1 mM biotin, 5–10 resin volume, 10 min). Finally, resins were washed two times. 0.5 ml 2 mg/ml cell lysate was added to the dry resin (1 mg total input) and were incubated at 4 °C for 2 h. Then, the beads were washed three times with 10 resin volume buffer containing: 50 mM TRIS pH 8.5, 150 mM NaCl, 1% TritonX-100, 10× complete EDTA-free protease inhibitor cocktail, 2 mM EDTA, 1 mM TCEP. Then, the beads were washed two times with ten resin volume buffer containing: 50 mM TRIS pH 8.5, 150 mM NaCl, 1 mM TCEP. Finally, captured protein was eluted from the resin in two steps and the eluted fractions were pooled. For each elution the beads were incubated for 30 min with three resin volume buffer containing: 20 mM TRIS pH8.5, 100 mM NaCl, 500 μM TCEP, 8 M Urea. Between each step, the beads were separated by mild centrifugation and the supernatant was removed by gentle pipetting.
as §1
as §2, with “ppm. […]” for “ppm.”

[9] = tested on: Jurkat cell extract preys; assay: PDZ-AP-MS, biotinylated MBP-PDZ baits; format: binding, human; settings: for Difference log2: enrichment of prey
Method: as §3, §4, §1
as §2, with “ppm. […]” for “ppm.”

[10] = PBM motif of the named protein vs DLG1_1 PDZ, read-out: pKd values – domain-motif, DLG1_1 (converted)
[11] = PBM motif of the named protein vs SCRIB_1 PDZ, read-out: pKd values – domain-motif, SCRIB_1 (converted)
[12] = PBM motif of the named protein vs DLG1_2 PDZ, read-out: pKd values – domain-motif, DLG1_2 (converted)
[13] = PBM motif of the named protein vs TX1BP3 PDZ, read-out: pKd values – domain-motif, TX1BP3 (converted)
[14] = holdup affinity of the PBM peptide of the named protein, sheet PBMcomplexome, lower sub-table, 3.5 appears to be the floor for no detectable binding, read-out: affinity of PBM to TX1BP3 (pKd) (converted)
[15] = holdup affinity of the PBM peptide of the named protein, sheet PBMcomplexome, lower sub-table, 3.5 appears to be the floor for no detectable binding, read-out: affinity of PBM to SCRIB_1 (pKd) (converted)
[16] = holdup affinity of the PBM peptide of the named protein, sheet PBMcomplexome, lower sub-table
[17] = holdup affinity of the PBM peptide of the named protein, sheet PBMcomplexome, lower sub-table, 3.5 appears to be the floor for no detectable binding, read-out: affinity of PBM to DLG1_1 (pKd) (converted)
[18] = holdup affinity of the PBM peptide of the named protein, sheet PBMcomplexome, lower sub-table, 3.5 appears to be the floor for no detectable binding, read-out: affinity of PBM to SCRIB_2 (pKd) (converted)
[19] = holdup affinity of the PBM peptide of the named protein, sheet PBMcomplexome, lower sub-table, 3.5 appears to be the floor for no detectable binding, read-out: affinity of PBM to DLG1_2 (pKd) (converted)
[20] = bait SCRIB_1 PDZ, fold change of prey
[21] = bait SNX27 PDZ, fold change of prey

SCRIB_1 PDZ, sequence (Q14160 728-815 limits assumed): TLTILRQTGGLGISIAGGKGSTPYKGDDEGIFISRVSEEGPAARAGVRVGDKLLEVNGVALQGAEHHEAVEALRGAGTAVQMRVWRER

Compound: CC(C)C[C@H](NC(=O)[C@@H]1CCCN1C(=O)[C@@H]1CCCN1C(=O)[C@H](CCCCN)NC(=O)[C@H](CO)NC(=O)[C@H](CC(=O)O)NC(=O)CCCCCNC(=O)CCCC[C@@H]1SC[C@@H]2NC(=O)N[C@@H]21)C(=O)N1CCC[C@H]1C(=O)N1CCC[C@H]1C(=O)N[C@@H](CC(=O)O)C(=O)N[C@@H](CCC(=O)O)C(=O)N[C@@H](Cc1c[nH]c2ccccc12)C(=O)N[C@H](C(=O)O)C(C)C [MERS E]
- Kd [1]: 27.5 µM

Compound: DLDEEEDTHL [PODXL]
- Kd [2, 10]: 234 µM
- Kd [3, 11]: 8.32 µM
- Kd [1]: 7.08 µM

Compound: DPRNTQTSQI [ABRAXAS2]
- Kd [2, 10]: 324 µM
- Kd [3, 11]: 95.5 µM
- Kd [1]: 91.2 µM
- Kd [4, 12]: 145 µM
- Kd [5, 13]: 195 µM

Compound: DRIQSCLSDA [SBF1]
- Kd [5, 14]: 91.2 µM

Compound: EALLQMESVA [CAVIN3]
- Kd [3, 15]: 275 µM
- Kd [1, 16]: 74.1 µM

Compound: ELSATVTTDC [TRIP6]
- Kd [3, 11]: 33.1 µM
- Kd [1]: 26.9 µM
- Kd [4, 12]: 214 µM
- Kd [5, 13]: 331 µM

Compound: ESYT2
- Difference log2 E6/Ctrl ([6]; E6 cell line vs control): -0.8847
- Ratio E6/Ctrl ([6]; E6 cell line vs control): 0.5416
- Difference log2 dPBM/E6 ([6]; dPBM cell line vs E6 cell line): -0.2136
- Ratio dPBM/E6 ([6]; dPBM cell line vs E6 cell line): 0.8624
- Difference log2 dPBM/Ctrl ([6]; dPBM cell line vs control): -1.098
- Ratio dPBM/Ctrl ([6]; dPBM cell line vs control): 0.4671

Compound: GGPKEEESPV [SLC16A1]
- Kd [3, 11]: 6.61 µM
- Kd [1]: 5.37 µM
- Kd [4, 12]: 275 µM

Compound: HSATSVHTSV [MTMR1]
- Kd [2, 17]: 55 µM
- Kd [7, 18]: 112 µM
- Kd [3, 15]: 162 µM
- Kd [1, 16]: 110 µM
- Kd [4, 19]: 12.6 µM
- Kd [5, 14]: 158 µM

Compound: NLQEHSTTSV [RSBN1]
- Kd [2, 17]: 316 µM
- Kd [3, 15]: 263 µM
- Kd [1, 16]: 3.31 µM
- Kd [4, 19]: 102 µM
- Kd [5, 14]: 107 µM

Compound: PKMKLNETSF [SHKBP1]
- Kd [3, 11]: 49 µM
- Kd [1]: 2.88 µM

Compound: SPLHSLETSL [ATP2B1]
- Kd [2, 10]: 75.9 µM
- Kd ([7]; PBM motif of the named protein vs SCRIB_2 PDZ, read-out: pKd values – domain-motif, SCRIB_2 (converted)): 53.7 µM
- Kd [3, 11]: 4.37 µM
- Kd [1]: 3.31 µM
- Kd [4, 12]: 21.4 µM
- Kd [5, 13]: 35.5 µM

Compound: TJP1
- Difference log2 ([8]; bait DLG1_1 PDZ vs MBP): 11.6713
- Ratio DLG1_1/MBP ([8]; bait DLG1_1 PDZ, fold change of prey): 3261.52
- Difference log2 ([8]; bait SCRIB_1 PDZ vs MBP): 5.351
- Ratio SCRIB_1/MBP [8, 20]: 40.8237
- Difference log2 ([8]; bait SNX27 PDZ vs MBP): 10.4278
- Ratio SNX27/MBP [8, 21]: 1377.49

Compound: VIM
- Difference log2 ([9]; bait SCRIB_1 PDZ vs MBP): 7.128
- Ratio SCRIB_1/MBP [9, 20]: 139.918
- Difference log2 ([9]; bait SNX27 PDZ vs MBP): 6.235
- Ratio SNX27/MBP [9, 21]: 75.3373
- Difference log2 ([9]; bait TX1BP3 PDZ vs MBP): 7.255
- Ratio TX1BP3/MBP ([9]; bait TX1BP3 PDZ, fold change of prey): 152.718

Compound: YLEPVLSSEL [ATP2A2]
- Kd [7, 18]: 275 µM
- Kd [3, 15]: 41.7 µM
- Kd [1, 16]: 75.9 µM
- Kd [5, 14]: 115 µM
